Assay results reported in patent US20230107642A1 (Erasca, Inc., priority 2020, published 2023).

target: T1, Cys12 of the KRAS 4B G12C protein (Homo sapiens, UniProt P01116, G12C); assay: In vitro covalent adduct formation (CAF) assay, LC-MS intact mass; type: binding; details: 10 uM compound, 60 min
T1 construct: This protein contained 188 amino acids in total, including an N-terminal 6-Histidine tag; made in house; host or cells: E. coli BL21
Summary of the method: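 GDP-loaded (>95%) His-TEV-tagged KRAS 4B G12C (residues 1–169), 5 μM in TBS pH 7.4, incubated with 10 μM compound (4% DMSO) at 22° C for one hour. Intact-protein LC-MS gave free:adduct ratios, reported as percent protein modified; duplicate runs.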

Row | SMILES | % CAF 10 uM @ 60 min [%]
1 | C=CC(=O)N1CCN(c2nc(=O)n3c4c(c(-c5cc(Cl)c(F)cc5F)c(C(F)(F)F)cc24)SCC2(COC2)C3)CC1 (atropisomer, axis not shown) [Example 1396, (R)-8′-(4-acryloylpiperazin-1-yl)-11′-(5-chloro-2,4-difluorophenyl)-10′-(trifluoromethyl)-2′H,4′H,6′H-spiro[oxetane-3,3′-[1,4]thiazepino[2,3-4-ij]quinazolin-6′-one] | 95.1
2 | C=CC(=O)N1[C@@H]2CC[C@H]1CN(c1nc(=O)n3c4c(c(-c5cc(Cl)c(F)cc5F)c(C(F)(F)F)cc14)SC[C@@H]3CN1CCN(CC)CC1)C2 [Example 1403, (3S)-7-((1R,5S)-8-acryloyl-3,8-diazabicyclo[3.2.1]octan-3-yl)-10-(5-chloro-2,4-difluorophenyl)-3-((4-ethylpiperazin-1-yl)methyl)-9-(trifluoromethyl)-2,3-dihydro-5H-[1,4]thiazino[2,3,4-ij]quinazolin-5-one] | 80.3
3 | C=CC(=O)N1C[C@H](C)N(c2nc(=O)n3c4c(c(-c5cccc6cnn(C)c56)c(C(F)(F)F)cc24)SC[C@@H]3CN2CCN(CC)CC2)C[C@H]1C (atropisomer, axis not shown) [Example 1381, (3S,10R)-7-((2S,5R)-4-acryloyl-2,5-dimethylpiperazin-1-yl)-3-((4-ethylpiperazin-1-yl)methyl)-10-(1-methyl-1H-indazol-7-yl)-9-(trifluoromethyl)-2,3-dihydro-5H-[1,4]thiazino[2,3,4-ij]quinazolin-5-one] | 19.1
4 | C=CC(=O)N1[C@H](C)CN(c2nc(=O)n3c4c(c(-c5ccc(F)cc5)c(C(F)(F)F)cc24)SC[C@@H]3C)C[C@@H]1C [Example 1419, (S)-7-((3S,5R)-4-acryloyl-3,5-dimethylpiperazin-1-yl)-10-(4-fluorophenyl)-3-methyl-9-(trifluoromethyl)-2H-[1,4]thiazino[2,3,4-ij]quinazolin-5(3H)-one] | 95.7
5 | C=CC(=O)N1C[C@H](C)N(c2nc(=O)n3c4c(c(-c5ccc(F)cc5F)c(C(F)(F)F)cc24)SC[C@@H]3CN2CCC3(CC2)COC3)C[C@H]1C (atropisomer, axis not shown) [Example 1314, (3S,10S)-3-((2-oxa-7-azaspiro[3.5]nonan-7-yl)methyl)-7-((2S,5R)-4-acryloyl-2,5-dimethylpiperazin-1-yl)-10-(2,4-difluorophenyl)-9-(trifluoromethyl)-2,3-dihydro-5H-[1,4]thiazino[2,3,4-ij]quinazolin-5-one] | 95.8

Further lines, results first:

Row | % CAF 10 uM @ 60 min [%] | SMILES
6 | 96 | C=CC(=O)N1[C@H](C)CN(c2nc(=O)n3c4c(c(-c5ccc(F)c(OC(F)F)c5)c(Cl)cc24)SC[C@@H]3COC)C[C@@H]1C [Example 1343, (S)-7-((3S,5R)-4-acryloyl-3,5-dimethylpiperazin-1-yl)-9-chloro-10-(3-(difluoromethoxy)-4-fluorophenyl)-3-(methoxymethyl)-2,3-dihydro-5H-[1,4]thiazino[2,3,4-ij]quinazolin-5-one]
7 | 95.4 | [2H]C([2H])=C([2H])C(=O)N1[C@H](C)CN(c2nc(=O)n3c4c(c(-c5cc(Cl)c(F)cc5F)c(C(F)(F)F)cc24)SC[C@@H]3COC)C[C@@H]1C (atropisomer, axis not shown) [Example 1393, (3S,10R)-7-((3S,5R)-4-(acryloyl-d3)-3,5-dimethylpiperazin-1-yl)-10-(5-chloro-2,4-difluorophenyl)-3-(methoxymethyl)-9-(trifluoromethyl)-2,3-dihydro-5H-[1,4]thiazino[2,3,4-ij]quinazolin-5-one]
8 | 97 | C=CC(=O)N1[C@H](C)CN(c2nc(=O)n3c4c(c(-c5cc(Br)c(F)cc5F)c(C(F)(F)F)cc24)SC[C@@H]3COC)C[C@@H]1C (atropisomer, axis not shown) [Example 1447, (3S,10R)-7-((3S,5R)-4-Acryloyl-3,5-dimethylpiperazin-1-yl)-10-(5-bromo-2,4-difluorophenyl)-3-(methoxymethyl)-9-(trifluoromethyl)-2,3-dihydro-5H-[1,4]thiazino[2,3,4-ij]quinazolin-5-one]

same assay, conditions: 10 uM compound, 60 min incubation

Row | % CAF 10 uM @ 60 min [%] | SMILES
9 | 0 | C=CC(=O)N1C[C@H](C)N(c2nc(=O)n3c4c(c(-c5cccc6cnn(C)c56)c(C(F)(F)F)cc24)SC[C@@H]3COC)C[C@H]1C (atropisomer, axis not shown) [Example 1101, (3S,10R)-7-((2S,5R)-4-acryloyl-2,5-dimethylpiperazin-1-yl)-3-(methoxymethyl)-10-(1-methyl-1H-indazol-7-yl)-9-(trifluoromethyl)-2,3-dihydro-5H-[1,4]thiazino[2,3,4-ij]quinazolin-5-one]
10 | 18.2 | C=CC(=O)N1[C@H](C)CN(c2nc(=O)n3c4c(c(-c5cccc6cnn(C)c56)c(C(F)(F)F)cc24)SC[C@@H]3COC)C[C@@H]1C (atropisomer, axis not shown) [Example 1131, (3S,10R)-7-((3S,5R)-4-acryloyl-3,5-dimethylpiperazin-1-yl)-3-(methoxymethyl)-10-(1-methyl-1H-indazol-7-yl)-9-(trifluoromethyl)-2,3-dihydro-5H-[1,4]thiazino [2,3,4-ij]quinazolin-5-one]

same assay, conditions: 10 μM compound, after 1 hour

Row | CAF (% after 1 hour) [%] | SMILES
11 | 96 | [2H]C([2H])=C([2H])C(=O)N1[C@H](C)CN(c2nc(=O)n3c4c(c(-c5ccc(F)cc5)c(C(F)(F)F)cc24)SC[C@@H](OC)C3)C[C@@H]1C [Example 1228, (S)-8-((3S,5R)-4-(acryloyl-d3)-3,5-dimethylpiperazin-1-yl)-11-(4-fluorophenyl)-3-methoxy-10-(trifluoromethyl)-3,4-dihydro-2H,6H-[1,4]thiazepino[2,3,4-ij]quinazolin-6-one]
12 | 93 | C=CC(=O)N1[C@H](C)CN(c2nc(=O)n3c4c(c(-c5ccc(F)cc5F)c(C(F)(F)F)cc24)SCCC3)C[C@@H]1C [Example 1227, 8-((3S,5R)-4-acryloyl-3,5-dimethylpiperazin-1-yl)-11-(2,4-difluorophenyl)-10-(trifluoromethyl)-3,4-dihydro-2H,6H-[1,4]thiazepino[2,3,4-ij]quinazolin-6-one]
13 | 69 | C=CC(=O)N1[C@H](C)CN(c2nc(=O)n3c4c(c(-c5ccc(F)cc5C(N)=O)c(C(F)(F)F)cc24)SC[C@@H](OC)C3)C[C@@H]1C [Example 1235, 2-((3S)-8-((3S,5R)-4-acryloyl-3,5-dimethylpiperazin-1-yl)-3-methoxy-6-oxo-10-(trifluoromethyl)-3,4-dihydro-2H,6H-[1,4]thiazepino[2,3,4-ij]quinazolin-11-yl)-5-fluorobenzamide]
14 | 57 | C=C(F)C(=O)N1CCN(c2nc(=O)n3c4c(c(-c5ccc(F)cc5)c(C(F)(F)F)cc24)SC[C@@H](OC)C3)CC1 [Example 1223, (S)-8-(4-(2-Fluoroacryloyl)piperazin-1-yl)-11-(4-fluorophenyl)-3-methoxy-10-(trifluoromethyl)-3,4-dihydro-2H,6H-[1,4]thiazepino[2,3,4-ij]quinazolin-6-one]

same assay, conditions: after 60 min

Row | CAF (% binding after 60 min) [%] | SMILES
15 | 96 | C=CC(=O)N1[C@H](C)CN(c2nc(=O)n3c4c(c(-c5cc(Cl)c(F)cc5F)c(C(F)(F)F)cc24)SC[C@H](OCCOC)C3)C[C@@H]1C [Example 1030, (3R)-8-((3S,5R)-4-acryloyl-3,5-dimethylpiperazin-1-yl)-11-(5-chloro-2,4-difluorophenyl)-3-(2-methoxyethoxy)-10-(trifluoromethyl)-3,4-dihydro-2H,6H-[1,4]thiazepino[2,3,4-ij]quinazolin-6-one]
